Values after ≈ are worked out from the molar mass of the structure shown. Read-outs that look alike come from different tables or passages of the source.
Columns and labels:
[1] = system: Streptococcus sp. group D X66; experiment: MIC, standard agar-dilution assay; assay type: cell-based; settings: Streptococcus sp. group D X66; read-out: MIC
[2] = system: Haemophilus influenzae 76; experiment: MIC, standard agar-dilution assay; assay type: cell-based; settings: Haemophilus influenzae 76, Ampicillin-resistant strain; read-out: MIC
[3] = system: Staphylococcus aureus X1.1; experiment: MIC, standard agar-dilution assay; assay type: cell-based; settings: read-out: MIC
[4] = system: Staphylococcus epidermidis 222; experiment: MIC, standard agar-dilution assay; assay type: cell-based; settings: read-out: MIC
[5] = system: Streptococcus pneumoniae Park I; experiment: MIC, standard agar-dilution assay; assay type: cell-based; settings: read-out: MIC
[6] = system: Klebsiella pneumoniae X68; experiment: MIC, standard agar-dilution assay; assay type: cell-based; settings: read-out: MIC
Escherichia coli EC14 = experiment: MIC, standard agar-dilution assay; assay type: cell-based; settings: read-out: MIC
[7] = system: Streptococcus pyogenes C203; experiment: MIC, standard agar-dilution assay; assay type: cell-based; settings: read-out: MIC
[8] = system: Streptococcus sp. group D 2041; experiment: MIC, standard agar-dilution assay; assay type: cell-based; settings: read-out: MIC
[9] = system: Haemophilus influenzae C.L.; experiment: MIC, standard agar-dilution assay; assay type: cell-based; settings: Ampicillin-sensitive strain, read-out: MIC
Streptococcus pyogenes = experiment: Experimental bacterial infection in mice, ED50; assay type: in vivo; settings: two doses, dose protecting 50% of animals; for ED50: Streptococcus pyogenes
Procedure: (§1) The new derivatives of this invention have also shown in vivo antimicrobial activity against experimental bacterial infections. When two doses of test compound were administered to mice in experimental infections, the activity observed was measured as an EDso value [effective dose in mg/kg to protect 50% of the test animals: see Warren Wick, et al., J. Bacteriol. 81, 233-235 (1961)].

Streptococcus pneumoniae = experiment: Experimental bacterial infection in mice, ED50; assay type: in vivo; settings: two doses, dose protecting 50% of animals; for ED50: Streptococcus pneumoniae
Procedure: as §1

Staphylococcus aureus = experiment: Experimental bacterial infection in mice, ED50; assay type: in vivo; settings: two doses, dose protecting 50% of animals; for ED50: Staphylococcus aureus
Procedure: as §1

[10] = system: Staphylococcus aureus S13E; experiment: MIC, standard agar-dilution assay; assay type: cell-based
[11] = sc, subcutaneous, read-out: Subcutaneous ED50

Structure (SMILES) | MIC [1] | MIC [2] | MIC [3] | MIC [4] | MIC [5] | MIC [6] | MIC (Escherichia coli EC14) | MIC [7] | MIC [8] | MIC [9] | ED50 (Streptococcus pyogenes; po, read-out: Oral ED50) | ED50 (Streptococcus pneumoniae; po, read-out: Oral ED50) | ED50 (Staphylococcus aureus; po, read-out: Oral ED50) | MIC [10] | ED50 (Streptococcus pyogenes; [11]) | Oral ED50 (Streptococcus pyogenes; oral) | ED50 (Streptococcus pneumoniae; [11]) | Oral ED50 (Streptococcus pneumoniae; oral) | ED50 (Staphylococcus aureus; [11]) | Oral ED50 (Staphylococcus aureus; oral)
CCN[C@@H]1[C@H](C)[C@@H](O)[C@](C)(O)[C@@H](CC)OC(=O)[C@H](C)[C@@H](O[C@H]2C[C@@](C)(OC)[C@@H](O)[C@H](C)O2)[C@H](C)[C@@H](O[C@@H]2O[C@H](C)C[C@H](N(C)C)[C@H]2O)[C@](C)(O)C[C@H]1C [Compound 2, (9S)-9-Deoxo-9-(ethylamino)erythromycin] | 0.25 µg/mL (≈ 0.328 µM) | 4 µg/mL (≈ 5.24 µM) | 1 µg/mL (≈ 1.31 µM) | 1 µg/mL (≈ 1.31 µM) | 0.03 µg/mL (≈ 0.0393 µM) | 64 µg/mL (≈ 83.9 µM) | 32 µg/mL (≈ 41.9 µM) | 0.125 µg/mL (≈ 0.164 µM) | 4 µg/mL (≈ 5.24 µM) | 1 µg/mL (≈ 1.31 µM) | 12.5 mg/kg | 13.4 mg/kg | 23.4 mg/kg | 2 µg/mL (≈ 2.62 µM) |  |  |  |  |  | 
CCCN[C@@H]1[C@H](C)[C@@H](O)[C@](C)(O)[C@@H](CC)OC(=O)[C@H](C)[C@@H](O[C@H]2C[C@@](C)(OC)[C@@H](O)[C@H](C)O2)[C@H](C)[C@@H](O[C@@H]2O[C@H](C)C[C@H](N(C)C)[C@H]2O)[C@](C)(O)C[C@H]1C [Compound 3, 9-Deoxo-9-(n-propylamino)erythromycin] | 0.125 µg/mL (≈ 0.161 µM) | 2 µg/mL (≈ 2.57 µM) | 1 µg/mL (≈ 1.29 µM) | 0.5 µg/mL (≈ 0.643 µM) | 0.015 µg/mL (≈ 0.0193 µM) | 128 µg/mL (≈ 165 µM) | 32 µg/mL (≈ 41.2 µM) | 0.03 µg/mL (≈ 0.0386 µM) | 4 µg/mL (≈ 5.15 µM) | 1 µg/mL (≈ 1.29 µM) | 3.3 mg/kg | 7.2 mg/kg | 11.8 mg/kg | 0.25 µg/mL (≈ 0.322 µM) | 1.67 mg/kg | 6.1 mg/kg | 1.77 mg/kg | 6.3 mg/kg | 6.11 mg/kg | 12.6 mg/kg
CCCCCCN[C@@H]1[C@H](C)[C@@H](O)[C@](C)(O)[C@@H](CC)OC(=O)[C@H](C)[C@@H](O[C@H]2C[C@@](C)(OC)[C@@H](O)[C@H](C)O2)[C@H](C)[C@@H](O[C@@H]2O[C@H](C)C[C@H](N(C)C)[C@H]2O)[C@](C)(O)C[C@H]1C [Compound 6, 9-Deoxo-9-(n-hexylamino)erythromycin] | 0.125 µg/mL (≈ 0.153 µM) | 4 µg/mL (≈ 4.88 µM) | 1 µg/mL (≈ 1.22 µM) | 0.25 µg/mL (≈ 0.305 µM) | < 0.008 µg/mL |  | 64 µg/mL (≈ 78.1 µM) | 0.125 µg/mL (≈ 0.153 µM) | 4 µg/mL (≈ 4.88 µM) | 4 µg/mL (≈ 4.88 µM) | 17.7 mg/kg | 14.3 mg/kg | 38.6 mg/kg | 1 µg/mL (≈ 1.22 µM) |  |  |  |  |  | 
CCCCCCCN[C@@H]1[C@H](C)[C@@H](O)[C@](C)(O)[C@@H](CC)OC(=O)[C@H](C)[C@@H](O[C@H]2C[C@@](C)(OC)[C@@H](O)[C@H](C)O2)[C@H](C)[C@@H](O[C@@H]2O[C@H](C)C[C@H](N(C)C)[C@H]2O)[C@](C)(O)C[C@H]1C [Compound 7, 9-Deoxo-9-(-n-heptylamino)erythromycin] | 0.06 µg/mL (≈ 0.072 µM) | 2 µg/mL (≈ 2.4 µM) | 0.25 µg/mL (≈ 0.3 µM) | 0.25 µg/mL (≈ 0.3 µM) | 0.015 µg/mL (≈ 0.018 µM) |  | 64 µg/mL (≈ 76.8 µM) | 0.015 µg/mL (≈ 0.018 µM) | 2 µg/mL (≈ 2.4 µM) | 1 µg/mL (≈ 1.2 µM) | 30.6 mg/kg | 33.2 mg/kg | > 50 mg/kg |  |  |  |  |  |  | 
CC[C@H]1OC(=O)[C@H](C)[C@@H](O[C@H]2C[C@@](C)(OC)[C@@H](O)[C@H](C)O2)[C@H](C)[C@@H](O[C@@H]2O[C@H](C)C[C@H](N(C)C)[C@H]2O)[C@](C)(O)C[C@@H](C)[C@H](NCC2CC=CCC2)[C@H](C)[C@@H](O)[C@]1(C)O (stereo partly drawn) [Compound 15, 9-Deoxo-9-[(1-cyclohex-4-enylmethyl)amino]erythromycin] | 0.25 µg/mL (≈ 0.302 µM) | 2 µg/mL (≈ 2.41 µM) | 1 µg/mL (≈ 1.21 µM) | 0.25 µg/mL (≈ 0.302 µM) | < 0.008 µg/mL |  | 64 µg/mL (≈ 77.2 µM) | 0.06 µg/mL (≈ 0.0724 µM) | 8 µg/mL (≈ 9.65 µM) | 4 µg/mL (≈ 4.82 µM) | 14.9 mg/kg | 8.7 mg/kg | 20 mg/kg | 1 µg/mL (≈ 1.21 µM) |  |  |  |  |  | 
